The supplement of paper PMC10307832

Experiments:
Experiment in all cases: relative viability (nuclei count vs DMSO), 5 days (fraction); higher = more cells survive
[1] = compound: Nc1ccn([C@@H]2O[C@H](CO)[C@@H](O)C2(F)F)c(=O)n1 [Gemcitabine] + CC1(C)CCC(c2ccc(Cl)cc2)=C(CN2CCN(c3ccc(C(=O)NS(=O)(=O)c4ccc(N[C@H](CCN5CCOCC5)CSc5ccccc5)c(S(=O)(=O)C(F)(F)F)c4)cc3)CC2)C1 [Navitoclax] (partner 0.5 µM)
Procedure, shortened: (§1)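 Lung cancer cell lines were pin-tool dosed in 1536-well plates on the day after seeding, with either a lone drug or a fixed anchor-drug dose plus five library-drug doses (not always all listed) in √10 steps. Nuclei were counted on 4× images after 5 days. Relative viability is the ratio of treated-well to vehicle-well nuclei counts, with each value a median of duplicate plates.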

[2] = compound: Nc1ccn([C@@H]2O[C@H](CO)[C@@H](O)C2(F)F)c(=O)n1 [Gemcitabine] + C[C@@H](Oc1cc(-c2cnn(C3CCNCC3)c2)cnc1N)c1c(Cl)ccc(F)c1Cl [Crizotinib] (partner 1 µM)
Procedure, shortened: as §1

[3] = compound: Nc1ccn([C@@H]2O[C@H](CO)[C@@H](O)C2(F)F)c(=O)n1 [Gemcitabine] + Cc1cc(Nc2cc(N3CCN(C)CC3)nc(Sc3ccc(NC(=O)C4CC4)cc3)n2)n[nH]1 [Tozasertib] (partner 0.1 µM)
Procedure, shortened: as §1

[4] = compound: Nc1ccn([C@@H]2O[C@H](CO)[C@@H](O)C2(F)F)c(=O)n1 [Gemcitabine] + O=C(CCCCCCC(=O)Nc1ccccc1)NO [Vorinostat] (partner 1 µM)
Procedure, shortened: as §1

## COR-L23
[1]; first compound 0.001 µM
  relative viability: 0.951
[1]; first compound 0.003162 µM
  relative viability: 0.96
[1]; first compound 0.01 µM
  relative viability: 0.381
[1]; first compound 0.03162 µM
  relative viability: 0.0768
[1]; first compound 0.1 µM
  relative viability: 0.0895
[2]; first compound 0.001 µM
  relative viability: 0.72
[2]; first compound 0.003162 µM
  relative viability: 0.565
[2]; first compound 0.01 µM
  relative viability: 0.211
[2]; first compound 0.03162 µM
  relative viability: 0.0732
[2]; first compound 0.1 µM
  relative viability: 0.0754
[3]; first compound 0.001 µM
  relative viability: 0.223
[3]; first compound 0.003162 µM
  relative viability: 0.19
[3]; first compound 0.01 µM
  relative viability: 0.111
[3]; first compound 0.03162 µM
  relative viability: 0.0883
[3]; first compound 0.1 µM
  relative viability: 0.0724
[4]; first compound 0.001 µM
  relative viability: 0.486
[4]; first compound 0.003162 µM
  relative viability: 0.347
[4]; first compound 0.01 µM
  relative viability: 0.092
[4]; first compound 0.03162 µM
  relative viability: 0.0851
[4]; first compound 0.1 µM
  relative viability: 0.1

## NCI-H1993
[1]; first compound 0.001 µM
  relative viability: 1.1
[1]; first compound 0.003162 µM
  relative viability: 1.01
[1]; first compound 0.01 µM
  relative viability: 0.583
[1]; first compound 0.03162 µM
  relative viability: 0.673
[1]; first compound 0.1 µM
  relative viability: 0.513
[2]; first compound 0.001 µM
  relative viability: 0.89
[2]; first compound 0.003162 µM
  relative viability: 0.891
[2]; first compound 0.01 µM
  relative viability: 0.668
[2]; first compound 0.03162 µM
  relative viability: 0.549
[2]; first compound 0.1 µM
  relative viability: 0.461
[3]; first compound 0.001 µM
  relative viability: 0.54
[3]; first compound 0.003162 µM
  relative viability: 0.633
[3]; first compound 0.01 µM
  relative viability: 0.619
[3]; first compound 0.03162 µM
  relative viability: 0.494
[3]; first compound 0.1 µM
  relative viability: 0.531
[4]; first compound 0.001 µM
  relative viability: 0.723
[4]; first compound 0.003162 µM
  relative viability: 0.904
[4]; first compound 0.01 µM
  relative viability: 0.547
[4]; first compound 0.03162 µM
  relative viability: 0.471
[4]; first compound 0.1 µM
  relative viability: 0.317

## NCI-H1437
[1]; first compound 0.001 µM
  relative viability: 1.06
[1]; first compound 0.003162 µM
  relative viability: 1.05
[1]; first compound 0.01 µM
  relative viability: 0.555
[1]; first compound 0.03162 µM
  relative viability: 0.206
[1]; first compound 0.1 µM
  relative viability: 0.111
[2]; first compound 0.001 µM
  relative viability: 1.07
[2]; first compound 0.003162 µM
  relative viability: 0.863
[2]; first compound 0.01 µM
  relative viability: 0.617
[2]; first compound 0.03162 µM
  relative viability: 0.162
[2]; first compound 0.1 µM
  relative viability: 0.121
[3]; first compound 0.001 µM
  relative viability: 0.447
[3]; first compound 0.003162 µM
  relative viability: 0.418
[3]; first compound 0.01 µM
  relative viability: 0.347
[3]; first compound 0.03162 µM
  relative viability: 0.297
[3]; first compound 0.1 µM
  relative viability: 0.156
[4]; first compound 0.001 µM
  relative viability: 0.749
[4]; first compound 0.003162 µM
  relative viability: 0.792
[4]; first compound 0.01 µM
  relative viability: 0.645
[4]; first compound 0.03162 µM
  relative viability: 0.398
[4]; first compound 0.1 µM
  relative viability: 0.232

## UMC-11
[1]; first compound 0.001 µM
  relative viability: 0.376
[1]; first compound 0.003162 µM
  relative viability: 0.309
[1]; first compound 0.01 µM
  relative viability: 0.291
[1]; first compound 0.03162 µM
  relative viability: 0.21
[1]; first compound 0.1 µM
  relative viability: 0.118
[2]; first compound 0.001 µM
  relative viability: 0.746
[2]; first compound 0.003162 µM
  relative viability: 0.574
[2]; first compound 0.01 µM
  relative viability: 0.598
[2]; first compound 0.03162 µM
  relative viability: 0.549
[2]; first compound 0.1 µM
  relative viability: 0.233
[3]; first compound 0.001 µM
  relative viability: 0.197
[3]; first compound 0.003162 µM
  relative viability: 0.162
[3]; first compound 0.01 µM
  relative viability: 0.221
[3]; first compound 0.03162 µM
  relative viability: 0.211
[3]; first compound 0.1 µM
  relative viability: 0.215
[4]; first compound 0.001 µM
  relative viability: 0.339
[4]; first compound 0.003162 µM
  relative viability: 0.505
[4]; first compound 0.01 µM
  relative viability: 0.425
[4]; first compound 0.03162 µM
  relative viability: 0.256
[4]; first compound 0.1 µM
  relative viability: 0.152

## 201T
[1]; first compound 0.001 µM
  relative viability: 1.17
[1]; first compound 0.003162 µM
  relative viability: 1.24
[1]; first compound 0.01 µM
  relative viability: 1.24
[1]; first compound 0.03162 µM
  relative viability: 1.19
[1]; first compound 0.1 µM
  relative viability: 0.494
[2]; first compound 0.001 µM
  relative viability: 1.04
[2]; first compound 0.003162 µM
  relative viability: 1.01
[2]; first compound 0.01 µM
  relative viability: 0.975
[2]; first compound 0.03162 µM
  relative viability: 0.464
[2]; first compound 0.1 µM
  relative viability: 0.329
[3]; first compound 0.001 µM
  relative viability: 0.981
[3]; first compound 0.003162 µM
  relative viability: 0.98
[3]; first compound 0.01 µM
  relative viability: 0.896
[3]; first compound 0.03162 µM
  relative viability: 0.425
[3]; first compound 0.1 µM
  relative viability: 0.298
[4]; first compound 0.001 µM
  relative viability: 0.999
[4]; first compound 0.003162 µM
  relative viability: 1.04
[4]; first compound 0.01 µM
  relative viability: 0.93
[4]; first compound 0.03162 µM
  relative viability: 0.43
[4]; first compound 0.1 µM
  relative viability: 0.253

## ChaGo-K-1
[1]; first compound 0.001 µM
  relative viability: 0.939
[1]; first compound 0.003162 µM
  relative viability: 0.443
[1]; first compound 0.01 µM
  relative viability: 0.361
[1]; first compound 0.03162 µM
  relative viability: 0.26
[1]; first compound 0.1 µM
  relative viability: 0.266
[2]; first compound 0.001 µM
  relative viability: 1.12
[2]; first compound 0.003162 µM
  relative viability: 0.961
[2]; first compound 0.01 µM
  relative viability: 0.578
[2]; first compound 0.03162 µM
  relative viability: 0.36
[2]; first compound 0.1 µM
  relative viability: 0.314
[3]; first compound 0.001 µM
  relative viability: 0.217
[3]; first compound 0.003162 µM
  relative viability: 0.216
[3]; first compound 0.01 µM
  relative viability: 0.184
[3]; first compound 0.03162 µM
  relative viability: 0.181
[3]; first compound 0.1 µM
  relative viability: 0.155
[4]; first compound 0.001 µM
  relative viability: 0.772
[4]; first compound 0.003162 µM
  relative viability: 0.68
[4]; first compound 0.01 µM
  relative viability: 0.301
[4]; first compound 0.03162 µM
  relative viability: 0.201
[4]; first compound 0.1 µM
  relative viability: 0.177

## NCI-H1650
[1]; first compound 0.001 µM
  relative viability: 1.57
[1]; first compound 0.003162 µM
  relative viability: 0.851
[1]; first compound 0.01 µM
  relative viability: 0.434
[1]; first compound 0.03162 µM
  relative viability: 0.176
[1]; first compound 0.1 µM
  relative viability: 0.11
[2]; first compound 0.001 µM
  relative viability: 0.974
[2]; first compound 0.003162 µM
  relative viability: 0.875
[2]; first compound 0.01 µM
  relative viability: 0.638
[2]; first compound 0.03162 µM
  relative viability: 0.158
[2]; first compound 0.1 µM
  relative viability: 0.145
[3]; first compound 0.001 µM
  relative viability: 0.507
[3]; first compound 0.003162 µM
  relative viability: 0.348
[3]; first compound 0.01 µM
  relative viability: 0.273
[3]; first compound 0.03162 µM
  relative viability: 0.119
[3]; first compound 0.1 µM
  relative viability: 0.113
[4]; first compound 0.001 µM
  relative viability: 0.55
[4]; first compound 0.003162 µM
  relative viability: 0.33
[4]; first compound 0.01 µM
  relative viability: 0.34
[4]; first compound 0.03162 µM
  relative viability: 0.21
[4]; first compound 0.1 µM
  relative viability: 0.127

## LOU-NH91
[1]; first compound 0.001 µM
  relative viability: 0.717
[1]; first compound 0.003162 µM
  relative viability: 0.448
[1]; first compound 0.01 µM
  relative viability: 0.292
[1]; first compound 0.03162 µM
  relative viability: 0.213
[1]; first compound 0.1 µM
  relative viability: 0.213
[2]; first compound 0.001 µM
  relative viability: 0.715
[2]; first compound 0.003162 µM
  relative viability: 0.594
[2]; first compound 0.01 µM
  relative viability: 0.451
[2]; first compound 0.03162 µM
  relative viability: 0.286
[2]; first compound 0.1 µM
  relative viability: 0.271
[3]; first compound 0.001 µM
  relative viability: 0.699
[3]; first compound 0.003162 µM
  relative viability: 0.578
[3]; first compound 0.01 µM
  relative viability: 0.415
[3]; first compound 0.03162 µM
  relative viability: 0.211
[3]; first compound 0.1 µM
  relative viability: 0.146
[4]; first compound 0.001 µM
  relative viability: 0.943
[4]; first compound 0.003162 µM
  relative viability: 0.761
[4]; first compound 0.01 µM
  relative viability: 0.421
[4]; first compound 0.03162 µM
  relative viability: 0.22
[4]; first compound 0.1 µM
  relative viability: 0.268
